Tested on in one series: not listed separately
Put plainly: Inactivation of the enzyme by pH and temperature, with and without calcium. The following applies: 10^-2 M calcium chloride, 15 min treatment (FIG. 6).
Take `[Ca+2].[Cl-].[Cl-]` [CaCl2, calcium chloride]: the “Rise of the temperature at which the enzyme is still stable, versus absence of the metal ion” value is roughly 5 °C.

The same series, now with this note: 10^-2 M-10^-3 M calcium chloride.
With `[Ca+2].[Cl-].[Cl-]` [CaCl2, calcium chloride], the “Thermostability of the enzyme on addition of the salt” value is listed as “enhanced”.

Another series concerns cyclodextrin glycosyltransferase (E.C. 2.4.1.19).
Experiment: not given
As to conditions: pH 7. The format is biochemical, Micrococcus varians M 849.
`[Ca+2].[Cl-].[Cl-]` [CaCl2, calcium chloride] came in with a Residual activity of 100%. Regarding `[Cl-].[Cl-].[Co+2]` [CoCl2], the Residual activity is listed as 88%.

With `O=S(=O)([O-])[O-].[Cu+2]` [CuSO4], the “Inhibition of the enzyme (in words)” value is “inhibited” and the Residual activity was 6%. `O=C(O)CN(CCN(CC(=O)O)CC(=O)O)CC(=O)O` [Ethylenediaminetetraacetic acid]: the “Inhibition of the enzyme (in words)” value was “inhibited” and the Residual activity stood at 2%. `O=S(=O)([O-])[O-].[Fe+2]` [FeSO4]: the “Inhibition of the enzyme (in words)” value is “inhibited” and the Residual activity was 10%.

As for `[Cl-].[Cl-].[Mg+2]` [MgCl2], the Residual activity was 100%. Still for that read-out and setting: under `O=S(=O)([O-])[O-].[Mg+2]` [MgSO4] stands 100%; under `O=C(O)CI` [Monoiodoacetic acid], 97%; under `c1cnc2c(c1)ccc1cccnc12` [O-Phenanthroline], 100%. `[Cl-].[Cl-].[Zn+2]` [ZnCl2] registered a Residual activity of 100%. Turning to `O=C(O)c1cc[c]([Hg][Cl])cc1` [p-Chloromercuribenzoic acid], the Residual activity is on record as 95%. For HgCl2, the “Inhibition of the enzyme (in words)” value is listed as “inhibited” and the Residual activity came to 5%.

For the origin of these results see US4317881A (priority 1979, dated 1982).
